Reference: US8629143B2, “Potassium channel modulators” (AbbVie Inc., priority 2009, dated 2014)

Biological target: T1, KCNQ 2/3 channels (HEK293 cells stably expressing human KCNQ2 and KCNQ3 subunits) (Homo sapiens, UniProt O43525+O43526)
T1 construct: expressed in transfected cells; host or cells: HEK293
Assay: KCNQ2/3 channel activation, thallium flux FLIPR assay with BTC-AM dye
Format: cell-based
Details: for Emax: HEK293, maximum response relative to the response produced by 10 μM retigabine (set at 100%), read-out: Max. %; for EC50: HEK293 cells expressing human KCNQ2 and KCNQ3, thallium flux, FLIPR
Summary of the method: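 HEK293 cells stably expressing human KCNQ2/KCNQ3 were loaded with BTC-AM (3 μg/mL, 2 h, RT) and preincubated with compound for 4 min in pH 7.3 gluconate buffer containing 0.1 mM ouabain. Flux was triggered by 6 mM TlNO3/10 mM K2SO4 and read for 3 min; EC50 came from summed responses over basal, with maximum relative to 10 μM retigabine (100%).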

Row | SMILES | Emax [%] | EC50 [nM]
1 | COC(=O)c1ccc(-c2nn(NC(=O)Cc3ccc(Cl)cc3)c(=O)c3ccccc23)cc1 [Example 80, methyl 4-(3-{[(4-chlorophenyl)acetyl]amino}-4-oxo-3,4-dihydrophthalazin-1-yl)benzoate] | 80 | 100 to 500
2 | CC(C)(CC(=O)Nn1nc(-c2ccccc2)c2ccccc2c1=O)c1ccccc1 [Example 82, 3-methyl-N-(1-oxo-4-phenylphthalazin-2(1H)-yl)-3-phenylbutanamide] | 156 | 100 to 500
3 | O=C(Cc1ccc(Cl)cc1Cl)Nn1nc(-c2ccccc2)c2ccccc2c1=O [Example 83, 2-(2,4-dichlorophenyl)-N-(1-oxo-4-phenylphthalazin-2(1H)-yl)acetamide] | 13 | > 10000
4 | CC(C)(CC(=O)Nn1nc(-c2ccc(Br)cc2)c2ccccc2c1=O)c1ccccc1 [Example 85, N-[4-(4-bromophenyl)-1-oxophthalazin-2(1H)-yl]-3-methyl-3-phenylbutanamide] | 117 | 100 to 500
5 | CC1(CC(=O)Nn2nc(-c3ccc(Cl)cc3)c3ccccc3c2=O)CCCC1 [Example 86, N-[4-(4-chlorophenyl)-1-oxophthalazin-2(1H)-yl]-2-(1-methylcyclopentyl)acetamide] | 166 | < 100
6 | O=C(CC1(C(F)(F)F)CCCC1)Nn1nc(-c2ccc(Cl)cc2)c2ccccc2c1=O [Example 87, N-[4-(4-chlorophenyl)-1-oxophthalazin-2(1H)-yl]-2-[1-(trifluoromethyl)cyclopentyl]acetamide] | 104 | 500 to 1000
7 | CC(C)(CC(=O)Nn1nc(-c2ccc(Cl)cc2)c2ccccc2c1=O)c1ccccc1 [Example 89, N-[4-(4-chlorophenyl)-1-oxophthalazin-2(1H)-yl]-3-methyl-3-phenylbutanamide] | 118 | 100 to 500
8 | O=C(Nn1nc(-c2ccc(Cl)cc2)c2ccccc2c1=O)C(F)c1ccccc1 (stereo not drawn) [Example 90, N-[4-(4-chlorophenyl)-1-oxophthalazin-2(1H)-yl]-2-fluoro-2-phenylacetamide] | 1 | > 10000
9 | O=C(Cc1cccnc1)Nn1nc(-c2ccc(Cl)cc2)c2ccccc2c1=O [Example 93, N-[4-(4-chlorophenyl)-1-oxophthalazin-2(1H)-yl]-2-(pyridin-3-yl)acetamide] | 149 | 1000 to 10000
10 | O=C(Cc1cccc(OC(F)(F)F)c1)Nn1nc(-c2ccc(Cl)cc2)c2ccccc2c1=O [Example 98, N-[4-(4-chlorophenyl)-1-oxophthalazin-2(1H)-yl]-2-[3-(trifluoromethoxy)phenyl]acetamide] | 80 | 500 to 1000
11 | O=C(Cc1ccc(C(F)(F)F)cc1)Nn1nc(-c2ccc(Cl)cc2)c2ccccc2c1=O [Example 99, N-[4-(4-chlorophenyl)-1-oxophthalazin-2(1H)-yl]-2-[4-(trifluoromethyl)phenyl]acetamide] | 81 | 500 to 1000
12 | O=C(Cc1cccc(C(F)(F)F)c1)Nn1nc(-c2ccc(Cl)cc2)c2ccccc2c1=O [Example 100, N-[4-(4-chlorophenyl)-1-oxophthalazin-2(1H)-yl]-2-[3-(trifluoromethyl)phenyl]acetamide] | 79 | 100 to 500
13 | CN(C)c1ccc(CC(=O)Nn2nc(-c3ccc(Cl)cc3)c3ccccc3c2=O)cc1 [Example 101, N-[4-(4-chlorophenyl)-1-oxophthalazin-2(1H)-yl]-2-[4-(dimethylamino)phenyl]acetamide] | 57 | 1000 to 10000
14 | O=C(Cc1ccc(Br)cc1)Nn1nc(-c2ccc(Cl)cc2)c2ccccc2c1=O [Example 102, 2-(4-bromophenyl)-N-[4-(4-chlorophenyl)-1-oxophthalazin-2(1H)-yl]acetamide] | 112 | 500 to 1000
15 | O=C(Cc1cccc(Cl)c1)Nn1nc(-c2ccc(Cl)cc2)c2ccccc2c1=O [Example 103, 2-(3-chlorophenyl)-N-[4-(4-chlorophenyl)-1-oxophthalazin-2(1H)-yl]acetamide] | 140 | 100 to 500
16 | COc1ccc(CC(=O)Nn2nc(-c3ccc(Cl)cc3)c3ccccc3c2=O)cc1 [Example 104, N-[4-(4-chlorophenyl)-1-oxophthalazin-2(1H)-yl]-2-(4-methoxyphenyl)acetamide] | 97 | 1000 to 10000
17 | COc1cccc(CC(=O)Nn2nc(-c3ccc(Cl)cc3)c3ccccc3c2=O)c1 [Example 105, N-[4-(4-chlorophenyl)-1-oxophthalazin-2(1H)-yl]-2-(3-methoxyphenyl)acetamide] | 84 | 100 to 500
18 | Cc1ccc(CC(=O)Nn2nc(-c3ccc(Cl)cc3)c3ccccc3c2=O)cc1 [Example 107, N-[4-(4-chlorophenyl)-1-oxophthalazin-2(1H)-yl]-2-(4-methylphenyl)acetamide] | 98 | 100 to 500
19 | Cc1cccc(CC(=O)Nn2nc(-c3ccc(Cl)cc3)c3ccccc3c2=O)c1 [Example 108, N-[4-(4-chlorophenyl)-1-oxophthalazin-2(1H)-yl]-2-(3-methylphenyl)acetamide] | 96 | 100 to 500
20 | O=C(CC1CCCC1)Nn1nc(-c2ccc(Cl)cc2)c2ccccc2c1=O [Example 109, N-[4-(4-chlorophenyl)-1-oxophthalazin-2(1H)-yl]-2-cyclopentylacetamide] | 138 | < 100
21 | CC(C)CCC(=O)Nn1nc(-c2ccc(Cl)cc2)c2ccccc2c1=O [Example 110, N-[4-(4-chlorophenyl)-1-oxophthalazin-2(1H)-yl]-4-methylpentanamide] | 120 | < 100
22 | CS(=O)(=O)c1ccc(CC(=O)Nn2nc(-c3ccc(Cl)cc3)c3ccccc3c2=O)cc1 [Example 111, N-[4-(4-chlorophenyl)-1-oxophthalazin-2(1H)-yl]-2-[4-(methylsulfonyl)phenyl]acetamide] | 25 | > 10000
23 | O=C(Cc1ccc(Cl)s1)Nn1nc(-c2ccc(Cl)cc2)c2ccccc2c1=O [Example 112, N-[4-(4-chlorophenyl)-1-oxophthalazin-2(1H)-yl]-2-(5-chloro-2-thienyl)acetamide] | 92 | 100 to 500
24 | O=C(Cc1ccc(Cl)c(F)c1)Nn1nc(-c2ccc(Cl)cc2)c2ccccc2c1=O [Example 114, 2-(4-chloro-3-fluorophenyl)-N-[4-(4-chlorophenyl)-1-oxophthalazin-2(1H)-yl]acetamide] | 119 | 500 to 1000
25 | CC1(C)[C@H]2CC[C@@H](CC(=O)Nn3nc(-c4ccc(Cl)cc4)c4ccccc4c3=O)[C@@H]1C2 [Example 115, N-[4-(4-chlorophenyl)-1-oxophthalazin-2(1H)-yl]-2-[(1S,2S,5S)-6,6-dimethylbicyclo[3.1.1]hept-2-yl]acetamide] | 69 | 100 to 500
26 | O=C(CC12CC3CC(CC(C3)C1)C2)Nn1nc(-c2ccc(Cl)cc2)c2ccccc2c1=O [Example 116, 2-(adamantan-1-yl)-N-[4-(4-chlorophenyl)-1-oxophthalazin-2(1H)-yl]acetamide] | 132 | < 100
27 | O=C(Cc1cc(F)cc(F)c1)Nn1nc(-c2ccc(Cl)cc2)c2ccccc2c1=O [Example 118, N-[4-(4-chlorophenyl)-1-oxophthalazin-2(1H)-yl]-2-(3,5-difluorophenyl)acetamide] | 128 | < 100
